Patent US10913952B2, “Environmental stress response transcriptional regulatory network” (Salk Institute for Biological Studies, priority 2016, dated 2021)

How the values were obtained:
Arabidopsis thaliana = assay: RNA-seq of ABA-treated etiolated seedlings (ABA time series); format: in vivo
Experimental: For ABA time series experiments, two biological replicates of 3-day-old etiolated, hydroponic-grown wild-type Col-0 seedlings were treated either by 10 μM (+/−)-ABA (MP biomedicals LLC, cat. #190673) dissolved in ethanol or ethanol-only mock control for 1, 4, 8, 12, 24, 36, and 60 hours. For DEX treatment, short term experiment was carried out by treating 3-day-old etiolated, DEX-inducible GFP-DIG1, GFP-DIG2 or GFP lines with 10 μM DEX (Sigma Aldrich, cat. #D9184); long term experiment was carried out by growing the same lines of plants containing 500 nM DEX for 10 days. Total RNA was isolated using the RNeasy Plant Mini Kit (Qiagen, CA, USA, Cat. #74903), and cDNA libraries were constructed using the TruSeq Stranded Total RNA LT Sample Prep Kit (Illumina, CA, USA, Cat. #15032611) according to manufacturers' instructions. Single-end reads were generated by the HiSeq 2500 Sequencing System (Illumina) and mapped to TAIR10 genome assembly using TopHat 2 (v2.0.8) (56). Mapped reads with mapping score equal to or larger than 10 were counted by HTSeq (v0.5.4) (57) and analyzed by edgeR (v3.6.2) (18) to identify differentially expressed genes using contrasts between ABA- and mock-treated samples at each time point and false discovery rate 0.01 or 0.05 as thresholds.
The genome-wide binding dynamics of a diverse collection of TFs was profiled using ChIP-seq to develop an in planta ABA transcriptional regulatory network. ABA-responsive transcripts were first surveyed in Arabidopsis thaliana, by generating strand-specific RNA-seq libraries from 3-day-old etiolated whole seedlings treated with either 10 uM (+/−)-ABA or an ethanol-containing mock for 1, 4, 8, 12, 24, 36 and 60 hours (FIG. 1A). Among 18,310 expressed genes, 3,061 are DE (FDR<0.01, Table 1) (18) for at least one time point. One hour of ABA treatment leads to moderate DE of many genes, and most transcriptional responses plateau after 8 hours (FIGS. 1B, 2). On the basis of gene expression data, we performed ChIP-seq experiments at four hours post ABA dose. TFs were selected based on responsiveness to ABA and published evidence, aiming to provide a good representation of TF families (FIG. 3; Tables 1 and 2). In general, highly expressed and responsive TFs were chosen in each representative TF family because in the context of an in planta experimental framework, the impact of these TFs on gene expression can be more effectively investigated compared with their weakly expressed homologs. All TF genes were epitope tagged by a recombineering-based approach (19), mostly with large DNA transformable artificial chromosomes, allowing the TFs to be expressed under their native promoters and genomic context (Table 2). The final dataset consisted of one hundred and twenty-two ChIP-seq experiments of 21 TFs from 11 families, including mock- and ABA-treated conditions.

ChIPped TFs = assay: Western blot of epitope-tagged ChIPped TFs after ABA treatment; format: in vivo, Arabidopsis thaliana; conditions: H3 loading control
[1] = 10 uM ABA treatment for 4 hours

CC1=CC(=O)CC(C)(C)C1(O)/C=C/C(C)=C\C(=O)O (racemic) [ABA, abscisic acid]
number of differentially expressed (DE) genes (Arabidopsis thaliana; 10 uM (+/-)-ABA vs ethanol mock, 1-60 hours, DE for at least one time point, FDR<0.01, among 18,310 expressed genes): 3,061
RNA-seq evidence: ABF1 (Arabidopsis thaliana; [1]): up regulated
RNA-seq evidence: ABF3 (Arabidopsis thaliana; [1]): up regulated
RNA-seq evidence: ABF4 (Arabidopsis thaliana; [1]): up regulated
RNA-seq evidence: ANAC032 (Arabidopsis thaliana; [1]): up regulated
RNA-seq evidence: ANAC102 (Arabidopsis thaliana; [1]): up regulated
RNA-seq evidence: DREB2A (Arabidopsis thaliana; [1]): up regulated
RNA-seq evidence: FBH3 (Arabidopsis thaliana; [1]): up regulated
RNA-seq evidence: GBF2 (Arabidopsis thaliana; [1]): up regulated
RNA-seq evidence: GBF3 (Arabidopsis thaliana; [1]): up regulated
RNA-seq evidence: HAT22 (Arabidopsis thaliana; [1]): up regulated
RNA-seq evidence: HB6 (Arabidopsis thaliana; [1]): up regulated
RNA-seq evidence: HSFA6A (Arabidopsis thaliana; [1]): up regulated
RNA-seq evidence: MYB3 (Arabidopsis thaliana; [1]): up regulated
RNA-seq evidence: MYB44 (Arabidopsis thaliana; [1]): up regulated
RNA-seq evidence: NF-YB2 (Arabidopsis thaliana; [1]): up regulated
RNA-seq evidence: NF-YC2 (Arabidopsis thaliana; [1]): up regulated
RNA-seq evidence: RD26 (ANAC072) (Arabidopsis thaliana; [1]): up regulated
RNA-seq evidence: ZAT6 (Arabidopsis thaliana; [1]): up regulated
number of differentially expressed TFs (Arabidopsis thaliana; first 1, 4 or 8 hours of ABA treatment, edgeR FDR threshold 0.05): Two hundred and twenty-two
protein abundance of most ChIPped TFs (ChIPped TFs): elevated
